Consider 19 compounds from patent US20240262812A1, “N-SUBSTITUTED PHENYLSULFONAMIDE COMPOUND AND USE THEREOF” (Shanghai Leado Pharmatech Co., Ltd., priority 2021, published 2024).

Broadly, the IC50 is the concentration needed to halve the response being measured. As a reminder, the inhibition is the relative decrease from the control value, in per cent.

Experiment [1] has as its target T1, mTRPA1 (Mus musculus, UniProt Q8BLA8).
T1 construct: expressed in transfected cells
The experiment is described as follows: IonWorks Barracuda (IWB) automated patch clamp, TRPA1 inhibitory activity. The settings on record: HEK293 cells stably expressing mTRPA1, current induced by AITC, amplitude at +100 mV; read-out: IC50 (inhibition activity on TRPA1). Type of experiment: cell-based. As for the experimental part: In this example, the inhibitory activity of the compounds prepared in some examples of the present invention on transient receptor potential channel protein ankyrin 1 (TRPA1) was tested. Among them, compound of formula A (WO2010075353) was used as the positive control compound: […]
Test method using IonWorks Barracuda (IWB) automated patch clamp detection: HEK293 cells stably expressing mTRPA1 were placed in the T175 culture flask with DMEM medium containing 15 µg/mL Blasticidin S HCl, 200 µg/mL Hygromycin B and 10% FBS, and cultured in 37° C., 5% CO2 incubator. When the cell density reached about 80%, the culture medium was removed, washed once with phosphate buffered saline (PBS) without calcium and magnesium. 3 mL of Trypsin was added to digest for 2 min, 7 mL of culture solution was added to terminate the digestion. The cells were collected to 15 mL centrifuge tube and centrifuged at 800 rpm for 3 min. After the supernatant was removed, the cells were added to appropriate volume of extracellular fluid for re-suspending, and the cell density was controlled at 2-3×10^6/mL for use in IWB experiment. Extracellular fluid formulation (in mM): 140 NaCl, 5 KCl, 1 MgCl2, 10 HEPES, 0.5 EGTA, 10 Glucose (pH 7.4); intracellular fluid formulation (in mM): 140 CsCl, 10 HEPES, 5 EGTA, 0.1 CaCl2, 1 MgCl2 (pH 7.2). 28 mg/mL of amphotericin B was freshly prepared with DMSO on the day of experiment, and then final concentration of 0.1 mg/mL was prepared with intracellular fluid.
Population patch clamp (PPC) plate was used in IWB experiment. The entire detection process was automatically carried out by the instrument, that is, extracellular fluid was added into 384 wells of PPC plate, and after intracellular fluid was added under PPC plate (in plenum), 6 µL of cell fluid was added for sealing test, and finally the intracellular fluid in plenum was replaced with intracellular fluid containing amphotericin B to establish a whole-cell recording mode after perforating sealed cells. The sampling frequency for recording TPRA1 current was 10 kHz, the cells were clamped at 0 mV, the voltage stimulation command (channel protocol) was a ramp voltage from −100 mV to +100 mV for 300 ms. This voltage stimulation was applied every 10 s, mTRPA1 current was induced by 300 µM AITC.
Data recording and current amplitude measurement export were carried out by IWB software (version 2.5.3, Molecular Devices Corporation, Union City, CA). No statistics was recorded for holes with sealing impedance lower than 20 MΩ. The original current data was corrected by software for leak subtraction. TRPA1 current amplitude was measured at +100 mV. […] If IC50 value of HC030031 exceeded 3 times of the average IC50 value previously obtained on each plate, it would be re-tested. The dose-effect curve of compounds and IC50 were fitted and calculated by GraphPad Prism 5.02 (GraphPad Software, San Diego, CA).
Some compounds of the present invention were subjected to IC50 inhibition activity test using the IonWorks Barracuda (IWB) automated patch clamp detection method.
In general terms: Patch clamp records ionic current or voltage across a cell membrane.

For experiment [2], the target named is T2, chemokine receptor CCR9 (Homo sapiens, UniProt P51686).
T2 construct: expressed in transfected cells
T2 sequence (P51686 1-369): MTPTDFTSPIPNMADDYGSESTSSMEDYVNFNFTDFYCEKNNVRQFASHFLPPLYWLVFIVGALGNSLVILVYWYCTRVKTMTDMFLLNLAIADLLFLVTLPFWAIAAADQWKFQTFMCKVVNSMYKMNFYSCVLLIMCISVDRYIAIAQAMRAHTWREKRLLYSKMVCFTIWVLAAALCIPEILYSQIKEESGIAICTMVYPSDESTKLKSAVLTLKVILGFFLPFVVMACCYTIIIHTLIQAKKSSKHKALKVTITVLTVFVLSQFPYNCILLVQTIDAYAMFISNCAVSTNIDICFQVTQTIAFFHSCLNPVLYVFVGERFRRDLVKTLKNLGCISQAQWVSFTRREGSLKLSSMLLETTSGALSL
Briefly: CCR9 antagonistic activity, calcium flow (Fluo-4, FlexStation), CCL25 agonist. The settings on record: antagonistic mode, CCL25 150 nM; for inhibition at 100 µM: read-out: Inhibition rate (%) (100 μM). It counts as cell-based. From the text:
2.1 Main reagents: DMEM culture medium (GIBCO); dimethyl sulfoxide (Sigma); FLUO-4, AM (Invitrogen) 2.2 Main instrument: Flexstation-3 (Molecular Devices) The test concentration gradient of the compound and replicates were set according to the requirement of testing ICSO. All test substances with 8 concentrations were set, with 3 replicates for each concentration. By establishing a cell line that cotransformed the receptor and G16, the receptor being activated can induce the activation of Gα16 protein, thereby activating phospholipase C (PLC) to produce IP3 and DAG. IP3 can bind to the IP3 receptor on the intracellular endoplasmic reticulum and mitochondria, leading to the release of intracellular calcium. Therefore, measuring changes in intracellular calcium can serve as a method for detecting the activation status of target receptor. Fluo-4/AM is a calcium fluorescent probe indicator used to measure calcium ion, as a non-polar lipophilic compound, under the action of cell lipase after entering cells, the AM group dissociates and releases Fluo-4; since Fluo-4 is a polar molecule, it is not easy to pass through lipid bilayers, allowing it to remain in the cell for a long time. Ultimately, the level of G protein activation can be reflected by measuring the excited fluorescence intensity. […] Cells stably expressing the target receptor/Ga16 were planted on a 96 well plate and cultured overnight. 2. The culture solution was removed from the well planted cells, then 40 μL/well of freshly prepared dye was added. The mixture was incubated at a constant temperature in a 37° C. incubator for 40 minutes. 3. The drug to be tested was diluted with calcium buffer and mixed well. 4. The dye was absorbed and discarded. After washed once with freshly prepared calcium buffer, 50 μL of calcium buffer that dissolved the drug to be tested was added for replacement. 5. The FlexStation II instrument was used for detection. Starting from the 15th second, […] dissolved with known agonist was automatically added by the instrument, and finally the fluorescence value at 525 nm was readed. The following formula was used to calculate the cell response rate (% Response) for each sample under each concentration. […] IC50 value was calculated using GraphPad Prism.

Some results are limits rather than exact numbers.

T1 sequence (Q8BLA8 whole entry): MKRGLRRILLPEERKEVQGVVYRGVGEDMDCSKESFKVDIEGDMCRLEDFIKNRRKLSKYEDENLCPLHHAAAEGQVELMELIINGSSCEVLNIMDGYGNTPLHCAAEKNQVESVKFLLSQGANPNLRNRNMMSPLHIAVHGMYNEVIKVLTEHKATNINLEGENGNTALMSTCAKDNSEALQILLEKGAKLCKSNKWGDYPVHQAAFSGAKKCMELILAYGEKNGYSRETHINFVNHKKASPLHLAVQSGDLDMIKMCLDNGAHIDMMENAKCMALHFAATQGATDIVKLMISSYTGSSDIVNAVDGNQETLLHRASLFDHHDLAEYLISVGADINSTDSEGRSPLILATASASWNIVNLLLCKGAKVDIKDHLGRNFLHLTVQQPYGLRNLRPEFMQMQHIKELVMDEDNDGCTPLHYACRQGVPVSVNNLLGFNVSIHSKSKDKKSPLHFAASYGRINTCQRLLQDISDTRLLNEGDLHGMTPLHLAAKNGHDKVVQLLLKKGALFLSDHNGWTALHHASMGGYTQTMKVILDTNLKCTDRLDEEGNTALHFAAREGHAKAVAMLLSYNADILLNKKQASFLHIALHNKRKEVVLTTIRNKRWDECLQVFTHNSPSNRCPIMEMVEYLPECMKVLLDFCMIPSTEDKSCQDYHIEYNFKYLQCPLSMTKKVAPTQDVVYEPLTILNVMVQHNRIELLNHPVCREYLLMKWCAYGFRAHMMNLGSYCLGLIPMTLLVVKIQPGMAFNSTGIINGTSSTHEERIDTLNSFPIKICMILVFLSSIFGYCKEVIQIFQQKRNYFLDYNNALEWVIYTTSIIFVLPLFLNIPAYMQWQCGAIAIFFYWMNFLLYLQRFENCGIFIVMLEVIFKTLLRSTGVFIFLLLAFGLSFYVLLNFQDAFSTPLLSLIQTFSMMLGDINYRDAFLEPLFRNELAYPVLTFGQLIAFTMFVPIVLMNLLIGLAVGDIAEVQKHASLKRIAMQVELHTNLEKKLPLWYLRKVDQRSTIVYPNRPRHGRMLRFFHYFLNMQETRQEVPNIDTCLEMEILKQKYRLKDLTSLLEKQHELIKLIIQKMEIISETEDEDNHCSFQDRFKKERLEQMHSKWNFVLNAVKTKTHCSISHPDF

For the compound `O=S(=O)(Nc1ccc(CN2CC(F)C2)cc1-c1ccco1)c1ccsc1` [IJ-2, N-(4-((3-fluoroazetidin-1-yl)methyl)-2-(furan-2-yl)phenyl)thiophene-3-sulfonamide], in experiment [1], the half-maximal inhibitory concentration (IC50) fell in the range of 1 to 5 µM. Further, in experiment [2], the inhibition at 100 µM was 30% and the IC50 is more than 100 µM.

For `CNCc1ccc(-c2ccco2)c(NS(=O)(=O)c2ccsc2)c1` [IA-21, N-(2-(furan-2-yl)-5-((methylamino)methyl)phenyl)thiophene-3-sulfonamide], the IC50 in experiment [1] lay within 1 to 5 µM. For the same compound, in experiment [2], the inhibition at 100 µM came to 25% and the IC50 was more than 100 µM.

Regarding `CNCc1ccc(-c2cccs2)c(NS(=O)(=O)c2ccc(F)cc2)c1` [IA-45, 4-Fluoro-N-(5-((methylamino)methyl)-2-(thiophene-2-yl)phenyl)benzenesulfonamide], the IC50 was 1 to 5 µM in experiment [1] and more than 100 µM in experiment [2]. Also, the inhibition at 100 µM in experiment [2] turned out to be 30%.

Turning to `CNCc1ccc(-c2ccco2)c(NS(=O)(=O)c2ccc(F)cc2F)c1` [IA-11, 2,4-Difluoro-N-(2-(furan-2-yl)-5-((methylamino)methyl)phenyl)benzenesulfonamide], the IC50 in experiment [1] was 1 to 5 µM. In addition, in experiment [2], the inhibition at 100 µM was 5% and the IC50 was more than 100 µM.

With `CNCc1ccc(-n2cccn2)c(NS(=O)(=O)c2ccccc2)c1` [IQ-2, N-(5-((methylamino)methyl)-2-(1H-pyrazol-1-yl)phenyl)benzenesulfonamide], the IC50 in experiment [1] fell in the range of 1 to 5 µM. In addition, in experiment [2], the inhibition at 100 µM turned out to be 17% and the IC50 is more than 100 µM.

With `CNCc1ccc(-c2ccco2)c(NS(=O)(=O)c2ccccc2OC)c1` [IA-5, 2-Methoxy-N-(2-(furan-2-yl)-5-((methylamino)methyl)phenyl)benzenesulfonamide], in experiment [1], the IC50 was 1 to 5 µM. For the same compound, in experiment [2], the inhibition at 100 µM came to 0% and the IC50 was more than 100 µM.

Consider `CN(c1ccc(CN)cc1-c1ccco1)S(=O)(=O)c1ccsc1` [IF, N-(4-(aminomethyl)-2-(furan-2-yl)phenyl)-N-methylthiophene-3-sulfonamide], for which the concentration for half-maximal inhibition (IC50) in experiment [1] was less than 1 µM. In addition, in experiment [2], the inhibition at 100 µM stood at 22% and the IC50 is more than 100 µM.

As to `CNCc1ccc(-c2ccsc2)c(NS(=O)(=O)c2ccccc2)c1` [IA-49, N-(2-(thiophene-3-yl)-5-((methylamino)methyl)phenyl)benzenesulfonamide], the IC50 was 1 to 5 µM in experiment [1] and more than 100 µM in experiment [2]. The inhibition at 100 µM in experiment [2] turned out to be 19%.

Regarding `O=S(=O)(Nc1ccc(CNC2CC2)cc1-c1ccco1)c1ccsc1` [IA-33, N-(4-((cyclopropylamino)methyl)-2-(furan-2-yl)phenyl)thiophene-3-sulfonamide], the half-maximal inhibitory concentration (IC50) in experiment [1] fell in the range of 1 to 5 µM. In experiment [2], the inhibition at 100 µM stood at 10% and the IC50 is more than 100 µM.

Consider `CNCc1ccc(-c2ccc(C)o2)c(NS(=O)(=O)c2ccccc2)c1` [IA-35, N-(5-((methylamino)methyl)-2-(5-methylfuran-2-yl)phenyl)benzenesulfonamide], for which the IC50 in experiment [1] was in the range of 1 to 5 µM. In experiment [2], the inhibition at 100 µM stood at 35% and the IC50 was more than 100 µM.

As to `CNCc1ccc(-c2ccco2)c(NS(=O)(=O)c2ccc(F)cc2)c1` [IA-1, 4-Fluoro-N-(2-(furan-2-yl)-5-((methylamino)methyl)phenyl)benzenesulfonamide], the IC50 in experiment [1] was 1 to 5 µM; in experiment [2], more than 100 µM. The inhibition at 100 µM in experiment [2] came to 14%.

Consider `CNCc1ccc(N(C)S(=O)(=O)c2ccsc2)c(-c2ccco2)c1` [IB, N-(2-(furan-2-yl)-4-((methylamino)methyl)phenyl)-N-methylthiophene-3-sulfonamide], for which the IC50 in experiment [1] was less than 1 µM. In experiment [2], the inhibition at 100 µM was 10% and the IC50 was more than 100 µM.

In the case of `NCc1ccc(-c2ccco2)c(NS(=O)(=O)c2ccsc2)c1` [ID-3, N-(5-(aminomethyl)-2-(furan-2-yl)phenyl)thiophene-3-sulfonamide], the values for the IC50 in experiment [1] and in experiment [2] were less than 1 µM and more than 100 µM, respectively. In experiment [2], the inhibition at 100 µM stood at 13%.

Take `CNCc1ccc(-n2cccc2)c(NS(=O)(=O)c2ccccc2)c1` [IQ-1, N-(5-((methylamino)methyl)-2-(1H-pyrrole-1-yl)phenyl)benzenesulfonamide]: the concentration for half-maximal inhibition (IC50) in experiment [1] lay within 1 to 5 µM. In addition, in experiment [2], the inhibition at 100 µM came out at 22% and the IC50 is more than 100 µM.

Consider `NCc1ccc(NS(=O)(=O)c2ccsc2)c(-c2cc[nH]n2)c1` [ID-7, N-(4-(aminomethyl)-2-(1H-pyrazole-3-yl)phenyl)thiophene-3-sulfonamide], for which the IC50 is 1 to 5 µM in experiment [1] and more than 100 µM in experiment [2]. Besides, the inhibition at 100 µM in experiment [2] was found to be 11%.

For `NCCc1ccc(NS(=O)(=O)c2ccsc2)c(-c2ccco2)c1` [IR, N-(4-(2-aminoethyl)-2-(furan-2-yl)phenyl)thiophene-3-sulfonamide], in experiment [1], the IC50 is 1 to 5 µM. In experiment [2], the inhibition at 100 µM came to 25% and the IC50 is more than 100 µM.

With `CNCc1ccc(-c2ccoc2)c(NS(=O)(=O)c2ccsc2)c1` [IA-43, N-(2-(furan-3-yl)-5-((methylamino)methyl)phenyl)thiophene-3-sulfonamide], the values for the IC50 in experiment [1] and in experiment [2] were 1 to 5 µM and more than 100 µM, respectively. In addition, the inhibition at 100 µM in experiment [2] worked out at 22%.

`CNCc1ccc(-c2ccco2)c(NS(=O)(=O)c2ccc3c(c2)CCO3)c1` [IA-15, N-(2-(furan-2-yl)-5-((methylamino)methyl)phenyl)-2,3-dihydrobenzofuran-5-sulfonamide]: in experiment [1], the IC50 was 1 to 5 µM. Moreover, in experiment [2], the inhibition at 100 µM was determined as 0% and the IC50 is more than 100 µM.

Take `NCc1ccc(-c2ccco2)c(NS(=O)(=O)c2ccccc2)c1` [ID-1, N-(5-(aminomethyl)-2-(furan-2-yl)phenyl)benzenesulfonamide]: the IC50 in experiment [1] was less than 1 µM. In addition, in experiment [2], the inhibition at 100 µM turned out to be 15% and the IC50 was more than 100 µM.
